Patent publication US4716175A, “Saturated fatty acid amides as inhibitors of acyl-CoA:cholesterol acyltransferase” (Warner-Lambert Company, priority 1987, dated 1987)
pIC50: −log10 of the molar value.

These compounds were tested against T1, acyl-CoA:cholesterol acyltransferase (ACAT) (Oryctolagus cuniculus, UniProt G1SFD9) (assay: in vitro inhibition of ACAT (cholesterol esterification by radio-labeled oleic acid, rabbit intestinal microsomes)). Settings: not given.
T1 construct: tissue preparation containing rabbit intestinal microsomes; from tissue; host or cells: rabbit intestinal microsomes
T1 sequence (G1SFD9 1-524): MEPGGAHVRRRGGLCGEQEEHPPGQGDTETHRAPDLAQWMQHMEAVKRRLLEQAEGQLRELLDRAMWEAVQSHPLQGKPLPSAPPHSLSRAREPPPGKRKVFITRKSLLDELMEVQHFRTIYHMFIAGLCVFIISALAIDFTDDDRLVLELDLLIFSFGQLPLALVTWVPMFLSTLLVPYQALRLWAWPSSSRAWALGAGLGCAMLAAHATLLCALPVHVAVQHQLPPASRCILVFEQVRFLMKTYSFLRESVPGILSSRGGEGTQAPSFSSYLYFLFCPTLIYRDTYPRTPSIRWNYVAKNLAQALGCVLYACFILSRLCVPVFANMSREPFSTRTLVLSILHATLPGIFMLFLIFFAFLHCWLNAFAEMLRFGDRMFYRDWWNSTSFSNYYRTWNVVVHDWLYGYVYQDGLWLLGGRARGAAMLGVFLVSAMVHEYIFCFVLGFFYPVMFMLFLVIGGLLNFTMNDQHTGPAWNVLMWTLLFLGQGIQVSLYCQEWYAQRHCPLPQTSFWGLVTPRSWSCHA
Assay type: biochemical
From the text: The test assesses the ability of a compound to inhibit the acylation of cholesterol by oleic acid by measuring the amount of radio-labeled cholesterol oleate formed from radio-labeled oleic acid in a tissue preparation containing rabbit intestinal microsomes.

pIC50	Compound
7.47	CCCCCCCC/C=C\CCCCCCC(C)C(=O)Nc1c(OC)cc(OC)cc1OC (centres unmarked) [(Z)-2-methyl-N-(2,4,6-trimethoxyphenyl)-9-octadecenamide]
7.30	CCCCCCCCCCCCC(CC)C(=O)Nc1c(OC)cc(OC)cc1OC (centres unmarked) [2-Ethyl-N-(2,4,6-trimethoxyphenyl)tetradecanamide]
5.48	CCCCCCCCCCC(C)C(=O)NC(C)c1ccccn1 (centres unmarked) [2-Methyl-N-[1-(2-pyridinyl)ethyl]dodecanamide]
6.59	CCCCCCCCCCCCC(CC)C(=O)Nc1c(OC)ncnc1OC (centres unmarked) [N-(4,6-Dimethoxy-5-pyrimidinyl)-2-ethyltetradecanamide]
6.30	CCCCCCCCCCCCC(C)C(=O)Nc1c(OCC)ncnc1OCC (centres unmarked) [N-(4,6-Diethoxy-5-pyrimidinyl)-2-methyltetradecanamide]
5.43	CCCCCCCCCCC(CCC)C(=O)NC(C)c1ccccn1 (centres unmarked) [2-Propyl-N-[1-(2-pyridinyl)ethyl]dodecanamide]
6.64	CCCCCCCCCCC(C)(C)C(=O)Nc1c(OC)ncnc1OC [N-(4,6-Dimethoxy-5-pyrimidinyl)-2,2-dimethyldodecanamide]
6.11	CCCCCCCC/C=C\CCCCCCCCC(C)(C)C(=O)Nc1c(OC)ncnc1OC [(Z)-N-(4,6-dimethoxy-5-pyrimidinyl)-2,2-dimethyl-11-eicosenamide]
6.96	CCCCCCCC/C=C\CCCCCCCCC(C)(C)C(=O)Nc1c(OC)cc(OC)cc1OC [(Z)-2,2-Dimethyl-N-(2,4,6-trimethoxyphenyl)-11-eicosenamide]
6.64	CCCCCCCCCCC(C)(C)C(=O)Nc1c(C)cccc1OCC [N-(2-Ethoxy-6-methylphenyl)-2,2-dimethyl-dodecanamide]
5.80	CCCCCCCCCCC(CC)C(=O)NC(C)c1ccccn1 (centres unmarked) [2-Ethyl-N-[1-(2-pyridinyl)ethyl]dodecanamide]
6.10	CCCCCCCCCCCCC(C)C(=O)NC(C)c1ccccn1 (centres unmarked) [2-Methyl-N-[1-(2-pyridinyl)ethyl]tetradecanamide]
5.15	CCCCCCCCCCC(Cc1ccccc1)C(=O)NC(C)c1ccccn1 (stereo not drawn) [α-Decyl-N-[1-(2-pyridinyl)ethyl]benzenepropanamide]
6.15	CCCCCCCCCCCCC(CC)C(=O)NC(C)c1ccccn1 (centres unmarked) [2-ethyl-N-[1-(2-pyridinyl)ethyl]tetradecanamide]
6.17	CCCCCCCC/C=C\CCCCCCCCC(C)(C)C(=O)Nc1c(C)cccc1OC [(Z)-N-(2-Methoxy-6-methylphenyl)-2,2-dimethyl-11-eicosenamide]
5.85	CCCCCCCCCCCCCCC(C)C(=O)NC(C)c1ccccn1 (centres unmarked) [2-methyl-N-[1-(2-pyridinyl)ethyl]hexadecanamide]
5.89	CCCCCCCCCCCCC(C)(C)C(=O)Nc1c(OC)ncnc1OC [N-(4,6-dimethoxy-5-pyrimidinyl)-2,2-dimethyltetradecanamide]
6.40	CCCCCCCCCCCCC(C)C(=O)Nc1c(OC)ncnc1OC (centres unmarked) [N-(4,6-dimethoxy-5-pyrimidinyl)-2-methyltetradecanamide]
8.15	CCCCCCCCCCC1(C(=O)Nc2c(OC)cc(OC)cc2OC)CCCC1 [1-Decyl-N-(2,4,6-trimethoxyphenyl)cyclopentanecarboxamide]
6.15	CCCCCCCCCCCCCCC(C)(C)C(=O)NC(C)c1ccccn1 (centres unmarked) [2,2-Dimethyl-N-[1-(2-pyridinyl)ethyl]hexadecanamide]

What follows are compounds tested on serum cholesterol (assay: cholesterol-fed rabbit test). Settings: oral 50 mg/kg thirty minutes prior to each meal for seven days, serum cholesterol three hours after last meal.
Assay type: in vivo, male, New Zealand white rabbits
From the text: In the cholestrol-fed rabbit test, male, New Zealand white rabbits weighing approximately 1 kg were fed a normal diet 40 g per day of rabbit chow (Purina NO. 5321, Ralston Purina Co., 711 West Fuesser Road, Mascoutah, Ill., 62224, USA). After six days on this diet, the rabbits were fed 50 g per day for three days of a cholsterol-enriched diet consisting of one part of a cholesterol-containing chow (Purina Catalog No. 841206WLI, 0.25% cholesterol) and two parts of normal chow. Next, the rabbits were fed 60 g per day for four days of a cholsterol-enriched diet consisting of two parts of a cholesterol-containing chow (Purina Catalog No. 841206WLI, 0.25% cholesterol) and one part of normal chow.
After this meal adaptation and cholesterol loading period, the test compounds of this invention were administered to the test animals in oral doses of 50 mg/kg of body weight thirty minutes prior to each meal for seven days. Control animals were administered vehicle only.
The animals were sacrificed three hours after their last meal in the postabsorptive state. Serum cholesterol levels were determined for each animal, and the data appear in Table 2 expressed as percent change in serum cholesterol level compared to control.

Compound	Percent Reduction in Cholesterol, Rabbit (percent change in serum cholesterol level compared to control)
CCCCCCCCCCCCC(C)C(=O)Nc1c(OC)cc(OC)cc1OC (centres unmarked) [2-Methyl-N-(2,4,6-trimethoxyphenyl)tetradecanamide]	-45%
CCCCCCCCCCC(C)(C)C(=O)Nc1c(OC)cc(OC)cc1OC [2,2-Dimethyl-N-(2,4,6-trimethoxyphenyl)dodecanamide]	-67%
CCCCCCCCCCCCC(C)C(=O)Nc1c(OC)ncnc1OC (centres unmarked) [N-(4,6-dimethoxy-5-pyrimidinyl)-2-methyltetradecanamide]	-29%

These compounds were tested on total cholesterol (assay: cholesterol-fed rat test). Settings: drug admixed in diet with 5.5% peanut oil, 1.5% cholesterol and 0.3% cholic acid, one week, nonfasted.
Assay type: in vivo, male, Sprague-Dawley rats
From the text: In the cholesterol-fed rat test, male, Sprague-Dawley rats (approximately 200 g body weight) were randomly divided into groups and provided ad libitum a regular rat chow diet (Purina No. 5002) supplemented with 5.5% peanut oil, 1.5% cholesterol and 0.3% cholic acid, with or without drug admixed at the indicated levels (w/w). After one week, the animals (nonfasted) were etherized and blood was taken from the heart into EDTA (0.14% final concentration) to measure total cholesterol using the Abbott VP Analyzer.

Compound	Percent Reduction in Cholesterol, Rat
CCCCCCCCCCCCC(C)C(=O)Nc1c(OC)cc(OC)cc1OC (centres unmarked) [2-Methyl-N-(2,4,6-trimethoxyphenyl)tetradecanamide]	-52%
CCCCCCCCCCC(C)(C)C(=O)Nc1c(OC)cc(OC)cc1OC [2,2-Dimethyl-N-(2,4,6-trimethoxyphenyl)dodecanamide]	-54%
CCCCCCCCCCC1(C(=O)Nc2c(OC)cc(OC)cc2OC)CCCC1 [1-Decyl-N-(2,4,6-trimethoxyphenyl)cyclopentanecarboxamide]	-52%
